For assay [1], the system named is BT474 and HN5 tumor cell lines. Kind of assay: Methylene blue growth inhibition assay (cellular Method A). The format is cell-based, Human. To be noted: Homo sapiens, BT-474, 72 h, 3 days, read-out: Activity (Method): growth inhibition IC50 class. The procedure, abridged:
(§1)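 Colo205, BT474 and HN5 cells in DMEM/10% FBS (BT474 10,000, HN5 3,000 cells/well) treated next day with compound in DMEM, 0.3% final DMSO, for 3 days at 37° C. Biomass stained with methylene blue, solubilized, read at OD 620; IC50 interpolated by nonlinear regression from % inhibition versus vehicle.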

The next assay concerns the target T1, ErbB2 or EGFR.
T1 construct: enzymes purified from a baculovirus expression system; Reagent production was conducted essentially as described in Brignola, P. S., et al, (2002) J. Biol. Chem. 277(2): 1576-1585
Kind of assay: ErbB family substrate phosphorylation enzyme assay (HTRF), Method A or Method B. The format is biochemical. The procedure, abridged: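 Baculovirus-expressed EGFR or ErbB2 (0.8 or 10 nM in enzyme mix) phosphorylates biotinylated Peptide C with 20 µM ATP and 0.8 µM peptide (substrate-mix levels), MnCl2, pH 7.5. Reaction ran 90 min at 20 °C with EDTA stop and HTRF anti-phosphotyrosine read. Method A: enzyme added last; Method B: 1 h enzyme–compound preincubation.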
A general note: Time-resolved FRET reads energy transfer from a long-lived donor to a nearby acceptor.

The test system of another assay is Colo205 tumor cell lines. Kind of assay: Methylene blue growth inhibition assay (cellular Method A), Colo205. It is filed as cell-based, Human. To be noted: Homo sapiens, COLO 205, 72 h, 3 days, read-out: Activity (Method): growth inhibition IC50 class. An outline of the steps:
as §1

Where [2] appears, read: Method B: enzyme mix pre-incubated with compound 1 hour at 20° C., started with substrate mix.
The mark [3] stands for this setting: Method A: substrate mix added first, reaction started with enzyme mix.

Broadly, the IC50 is the concentration at which inhibition is half-maximal.

`C=CCN(C)CCOc1cccc(Nc2nccc(-c3c(-c4cccc(NC(=O)c5c(F)cccc5F)c4)nn4ccccc34)n2)c1` [Example 195, 2,6-Difluoro-N-{3-[3-(2-{[3-({2-[methyl(2-propen-1-yl)amino]ethyl}oxy)phenyl]amino}-4-pyrimidinyl)pyrazolo[1,5-a]pyridin-2-yl]phenyl}benzamide]: the IC50 was 100 to 1000 nM in assay [1] and over 1000 nM with Colo205 tumor cell lines. For the same compound, on ErbB2 or EGFR (setting [2]), the “Activity (Method): pIC50 class against ErbB2 or EGFR” value (“Activity (Method): pIC50 class” for short) is listed as “+++ (B) (at least one pIC50 measurement of greater than 7 against either ErbB2 or EGFR)”.

Take `COc1ccc(Nc2nccc(-c3c(-c4cccc(NC(=O)c5c(F)cccc5F)c4)nn4ccccc34)n2)cc1N1CCN(C)CC1` [Example 201, 2,6-Difluoro-N-{3-[3-(2-{[4-(methyloxy)-3-(4-methyl-1-piperazinyl)phenyl]amino}-4-pyrimidinyl)pyrazolo[1,5-a]pyridin-2-yl]phenyl}benzamide]: the values for the IC50 (in assay [1]; in the assay on Colo205 tumor cell lines) were under 100 nM and 100 to 1000 nM, respectively. Also, the “Activity (Method): pIC50 class” value on ErbB2 or EGFR (setting [2]) is given as “+++ (B) (at least one pIC50 measurement of greater than 7 against either ErbB2 or EGFR)”.

`O=C(Nc1cccc(-c2nn3ccccc3c2-c2ccnc(Nc3ccccc3)n2)c1)c1ccc(Cl)cc1` [Example 142, 4-Chloro-N-(3-{3-[2-(phenylamino)-4-pyrimidinyl]pyrazolo[1,5-a]pyridin-2-yl}phenyl)benzamide]: the IC50 (in assay [1]; in the assay on Colo205 tumor cell lines) was over 1000 nM throughout. For the same compound, the “Activity (Method): pIC50 class” value at ErbB2 or EGFR (setting [3]) is “++ (A) (at least one pIC50 measurement greater than 6 against either ErbB2 or EGFR but no measurement greater than pIC50 of 7)”.

Regarding `O=C(NC1CC1)c1ccc(Nc2nccc(-c3c(-c4cccc(NC(=O)c5c(F)cccc5F)c4)nn4ccccc34)n2)cc1` [Example 103, N-(3-{3-[2-({4-[(cyclopropylamino)carbonyl]phenyl}-amino)-4-pyrimidinyl]pyrazolo[1,5-a]pyridin-2-yl}phenyl)-2,6-difluorobenzamide], the IC50 in assay [1] is under 100 nM; with Colo205 tumor cell lines, 100 to 1000 nM. Besides, at ErbB2 or EGFR (setting [2]), the “Activity (Method): pIC50 class” value is on record as “+++ (B) (at least one pIC50 measurement of greater than 7 against either ErbB2 or EGFR)”.

On to `O=C(Nc1cccc(-c2nn3ccccc3c2-c2ccnc(Nc3ccc4nn[nH]c4c3)n2)c1)c1c(F)cccc1F` [Example 31, N-(3-{3-[2-(1H-1,2,3-benzotriazol-5-ylamino)-4-pyrimidinyl]pyrazolo[1,5-a]pyridin-2-yl}phenyl)-2,6-difluorobenzamide], for which the IC50 is under 100 nM in assay [1] and 100 to 1000 nM in the assay on Colo205 tumor cell lines. The “Activity (Method): pIC50 class” value at ErbB2 or EGFR (setting [2]) was “+++ (B) (at least one pIC50 measurement of greater than 7 against either ErbB2 or EGFR)”.

With `CN1CCN(CCCNc2ccc(Nc3nccc(-c4c(-c5cccc(NC(=O)c6c(F)cccc6F)c5)nn5ccccc45)n3)cc2F)CC1` [Example 42, 2,6-Difluoro-N-[3-(3-{2-[(3-fluoro-4-{[3-(4-methyl-1-piperazinyl)propyl]amino}phenyl)amino]-4-pyrimidinyl}pyrazolo[1,5-a]pyridin-2-yl)phenyl]benzamide], the IC50 was under 100 nM in assay [1] and over 1000 nM in the assay with Colo205 tumor cell lines. Also, at ErbB2 or EGFR (setting [2]), the “Activity (Method): pIC50 class” value was “+++ (B) (at least one pIC50 measurement of greater than 7 against either ErbB2 or EGFR)”.

Take `NS(=O)(=O)c1cccc(Nc2nccc(-c3c(-c4cccc(NC(=O)c5c(F)cccc5F)c4)nn4ccccc34)n2)c1` [Example 118, N-{3-[3-(2-{[3-(aminosulfonyl)phenyl]amino}-4-pyrimidinyl)pyrazolo[1,5-a]pyridin-2-yl]phenyl}-2,6-difluorobenzamide]: the IC50 in assay [1] is under 100 nM; in the assay with Colo205 tumor cell lines it was 100 to 1000 nM. In addition, at ErbB2 or EGFR (setting [2]), the “Activity (Method): pIC50 class” value is “+++ (B) (at least one pIC50 measurement of greater than 7 against either ErbB2 or EGFR)”.

Turning to `O=C(Nc1cccc(-c2nn3ccccc3c2-c2ccnc(Nc3ccc(OCCN4CCCC4=O)c(F)c3)n2)c1)c1c(F)cccc1F` [Example 133, 2,6-Difluoro-N-[3-(3-{2-[(3-fluoro-4-{[2-(2-oxo-1-pyrrolidinyl)ethyl]oxy}phenyl)amino]-4-pyrimidinyl}pyrazolo[1,5-a]pyridin-2-yl)phenyl]benzamide], the IC50 is under 100 nM in assay [1] and 100 to 1000 nM with Colo205 tumor cell lines. Moreover, the “Activity (Method): pIC50 class” value at ErbB2 or EGFR (setting [2]) is listed as “+++ (B) (at least one pIC50 measurement of greater than 7 against either ErbB2 or EGFR)”.

For `O=C(Nc1cccc(-c2nn3ccccc3c2-c2ccnc(Nc3ccc(Cc4ccncc4)cc3)n2)c1)c1c(F)cccc1F` [Example 94], the results for the IC50 (in assay [1]; with Colo205 tumor cell lines) were under 100 nM and over 1000 nM, respectively. The “Activity (Method): pIC50 class” value at ErbB2 or EGFR (setting [3]) is “+++ (A) (at least one pIC50 measurement of greater than 7 against either ErbB2 or EGFR)”.

Take `COc1cccc(C(=O)Nc2cccc(-c3nn4ccccc4c3-c3ccnc(Nc4ccc5c(c4)OCCO5)n3)c2)c1` [Example 5, N-(3-{3-[2-(2,3-Dihydro-benzo[1,4]dioxin-6-ylamino)-pyrimidin-4-yl]-pyrazolo[1,5]-pyridin-2-yl}-phenyl)-3-methoxy-benzamide]: the IC50 in assay [1] is 100 to 1000 nM; in the assay with Colo205 tumor cell lines, over 1000 nM. At ErbB2 or EGFR (setting [3]), the “Activity (Method): pIC50 class” value is given as “+++ (A) (at least one pIC50 measurement of greater than 7 against either ErbB2 or EGFR)”.

As for `O=C(Nc1cccc(-c2nn3ccccc3c2-c2ccnc(Nc3ccc(OCCN4CCCCC4)c(F)c3)n2)c1)c1c(F)cccc1F` [Example 134, 2,6-Difluoro-N-[3-(3-{2-[(3-fluoro-4-{[2-(1-piperidinyl)ethyl]oxy}phenyl)amino]-4-pyrimidinyl}pyrazolo[1,5-a]pyridin-2-yl)phenyl]benzamide], the figures for the IC50 (in assay [1]; in the assay on Colo205 tumor cell lines) were under 100 nM and over 1000 nM, respectively. The “Activity (Method): pIC50 class” value on ErbB2 or EGFR (setting [3]) is listed as “+++ (A) (at least one pIC50 measurement of greater than 7 against either ErbB2 or EGFR)”.

Consider `COc1ccc(-c2nn3ccccc3c2-c2ccnc(Nc3ccc4c(c3)CNCC4)n2)cc1NC(=O)c1c(F)cccc1F` [Example 159, 2,6-Difluoro-N-(2-(methyloxy)-5-{3-[2-(1,2,3,4-tetrahydro-7-isoquinolinylamino)-4-pyrimidinyl]pyrazolo[1,5-a]pyridin-2-yl}phenyl)benzamide], for which the IC50 (in assay [1]; in the assay on Colo205 tumor cell lines) was over 1000 nM each time. In addition, the “Activity (Method): pIC50 class” value on ErbB2 or EGFR (setting [2]) was “+ (B) (no pIC50 measurement greater than 6 against either ErbB2 or EGFR)”.

On to `CC(=O)Nc1cccc(Nc2nccc(-c3c(-c4cccc(NC(=O)c5cc(F)ccc5F)c4)nn4ccccc34)n2)c1` [Example 47, N-{3-[3-(2-{[3-(acetylamino)phenyl]amino}-4-pyrimidinyl)pyrazolo[1,5-a]pyridin-2-yl]phenyl}-2,5-difluorobenzamide], for which the IC50 in assay [1] is 100 to 1000 nM; in the assay on Colo205 tumor cell lines it was over 1000 nM. For the same compound, the “Activity (Method): pIC50 class” value on ErbB2 or EGFR (setting [3]) is reported as “+++ (A) (at least one pIC50 measurement of greater than 7 against either ErbB2 or EGFR)”.

For the compound `NC1CCc2ccc(Nc3nccc(-c4c(-c5cccc(NC(=O)c6c(F)cccc6F)c5)nn5ccccc45)n3)cc2C1` (stereo not drawn) [Example 174, N-[3-(3-{2-[(7-Amino-5,6,7,8-tetrahydro-2-naphthalenyl)amino]-4-pyrimidinyl}pyrazolo[1,5-g]pyridin-2-yl)phenyl]-2,6-difluorobenzamidedifluorobenzamide], the IC50 was under 100 nM in assay [1] and 100 to 1000 nM with Colo205 tumor cell lines. Moreover, the “Activity (Method): pIC50 class” value at ErbB2 or EGFR (setting [2]) is “+++ (B) (at least one pIC50 measurement of greater than 7 against either ErbB2 or EGFR)”.

Turning to `CCN1CCN(c2ccc(Nc3nccc(-c4c(-c5cccc(NC(=O)c6c(F)cccc6F)c5)nn5ccccc45)n3)cc2)CC1` [Example 107, N-{3-[3-(2-{[4-(4-ethyl-1-piperazinyl)phenyl]amino}-4-pyrimidinyl)pyrazolo[1,5-a]pyridin-2-yl]phenyl}-2,6-difluorobenzamide], the IC50 (in assay [1]; in the assay on Colo205 tumor cell lines) was under 100 nM throughout. The “Activity (Method): pIC50 class” value at ErbB2 or EGFR (setting [2]) is reported as “+++ (B) (at least one pIC50 measurement of greater than 7 against either ErbB2 or EGFR)”.

In the case of `Cc1cccc2c(-c3ccnc(Nc4cccc(F)c4)n3)c(-c3cccc(NC(=O)c4c(F)cccc4F)c3)nn12` [Example 156, 2,6-Difluoro-N-[3-(3-{2-[(3-fluorophenyl)amino]-pyrimidin-4-yl}-7-methylpyrazolo[1,5-a]pyridin-2-yl)phenyl]benzamide], the IC50 in assay [1] is 100 to 1000 nM; in the assay on Colo205 tumor cell lines, over 1000 nM. Moreover, the “Activity (Method): pIC50 class” value at ErbB2 or EGFR (setting [3]) is on record as “++ (A) (at least one pIC50 measurement greater than 6 against either ErbB2 or EGFR but no measurement greater than pIC50 of 7)”.

On to `O=C(Nc1cccc(-c2nn3ccccc3c2-c2ccnc(Nc3cccc(F)c3)n2)c1)c1cc(F)ccc1Cl` [Example 11, 2-Chloro-5-fluoro-N-(3-{3-[2-(3-fluoro-phenylamino)-pyrimidin-4-yl]-pyrazolo[1,5-a]pyridin-2-yl}-phenyl)-benzamide], for which the IC50 in assay [1] is 100 to 1000 nM; in the assay on Colo205 tumor cell lines, over 1000 nM. Further, the “Activity (Method): pIC50 class” value at ErbB2 or EGFR (setting [2]) is recorded as “+++ (B) (at least one pIC50 measurement of greater than 7 against either ErbB2 or EGFR)”.
